Source: ChEMBL document CHEMBL1131034, “Synthesis and pharmacological characterization of novel 6-fluorochroman derivatives as potential 5-HT1A receptor antagonists” (J Med Chem, 1998)
Each block holds one molecule with its values, some of them ahead of it.

Tests used:
[1] = target: D(2) dopamine receptor (Rattus norvegicus, UniProt P61169); assay: Binding affinity against dopamine receptor D2 on rat striatum using [3H]spiperone as radioligand.; type: tissue-based
[2] = target: T1, 5-hydroxytryptamine receptor 1A (Homo sapiens) (UniProt P08908); assay: Antagonist activity against CHO cells expressing the human 5-hydroxytryptamine 1A receptor in a forskolin stimulated adenylate cyclase (FSC) assay.; type: functional, cell-based
T1 sequence (whole entry): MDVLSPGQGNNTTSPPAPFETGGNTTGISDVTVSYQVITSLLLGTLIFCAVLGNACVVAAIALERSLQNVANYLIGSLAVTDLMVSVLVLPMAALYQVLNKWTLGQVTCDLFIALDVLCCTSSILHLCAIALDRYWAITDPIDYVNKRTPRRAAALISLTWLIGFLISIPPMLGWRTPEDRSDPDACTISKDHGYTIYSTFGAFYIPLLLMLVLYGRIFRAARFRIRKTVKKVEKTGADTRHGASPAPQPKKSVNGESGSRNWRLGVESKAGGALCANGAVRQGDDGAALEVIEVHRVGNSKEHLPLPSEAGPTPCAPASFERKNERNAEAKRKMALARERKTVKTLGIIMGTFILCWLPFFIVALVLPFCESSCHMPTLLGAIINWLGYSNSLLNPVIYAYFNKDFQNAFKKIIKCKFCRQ

[3] = target: T2, 5-hydroxytryptamine receptor 1A (Rattus norvegicus, UniProt P19327); assay: Binding affinity against 5-hydroxytryptamine 1A receptor on rat hippocampus using [3H]8-OH-DPAT as radioligand.; type: tissue-based
T2 sequence (P19327 whole entry): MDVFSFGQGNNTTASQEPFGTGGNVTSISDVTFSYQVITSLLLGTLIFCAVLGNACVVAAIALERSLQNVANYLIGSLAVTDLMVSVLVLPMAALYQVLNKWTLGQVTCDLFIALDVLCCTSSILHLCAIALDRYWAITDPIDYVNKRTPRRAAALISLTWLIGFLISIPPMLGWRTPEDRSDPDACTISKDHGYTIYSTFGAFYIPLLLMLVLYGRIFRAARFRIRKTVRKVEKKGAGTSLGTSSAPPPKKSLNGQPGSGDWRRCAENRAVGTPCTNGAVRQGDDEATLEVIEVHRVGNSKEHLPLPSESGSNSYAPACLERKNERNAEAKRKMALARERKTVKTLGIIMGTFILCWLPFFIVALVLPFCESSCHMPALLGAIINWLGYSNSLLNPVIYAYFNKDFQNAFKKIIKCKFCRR

[4] = target: Serotonin 1a (5-HT1a) receptor/Adrenergic receptor alpha-1 (Rattus norvegicus) (UniProt P15823+P23944+P43140+P19327); assay: Selectivity for 5-HT1A receptor of rat hippocampus and alpha-1 adrenergic receptor of rat cortex.; type: tissue-based
[5] = target: T3, Adrenergic receptor alpha-1 (Rattus norvegicus, UniProt P15823+P23944+P43140); assay: Binding affinity against alpha-1 adrenergic receptor on rat cortex using [3H]-prazosin as radioligand.; type: tissue-based, Brain
T3 sequence (P15823 whole entry): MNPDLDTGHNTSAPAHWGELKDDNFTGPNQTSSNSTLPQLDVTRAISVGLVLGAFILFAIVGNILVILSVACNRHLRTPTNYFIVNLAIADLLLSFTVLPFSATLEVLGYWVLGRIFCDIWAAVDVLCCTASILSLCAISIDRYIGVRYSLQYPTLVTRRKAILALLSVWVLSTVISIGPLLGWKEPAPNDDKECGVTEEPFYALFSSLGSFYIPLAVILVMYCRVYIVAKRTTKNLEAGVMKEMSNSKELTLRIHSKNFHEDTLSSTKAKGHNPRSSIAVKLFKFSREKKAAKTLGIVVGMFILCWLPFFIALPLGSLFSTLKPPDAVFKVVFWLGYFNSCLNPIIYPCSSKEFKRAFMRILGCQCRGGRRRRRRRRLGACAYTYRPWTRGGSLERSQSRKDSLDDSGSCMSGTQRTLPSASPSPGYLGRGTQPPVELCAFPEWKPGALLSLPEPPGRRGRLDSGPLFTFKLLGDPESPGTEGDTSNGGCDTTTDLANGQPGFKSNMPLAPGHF
T3 sequence (P23944 whole entry): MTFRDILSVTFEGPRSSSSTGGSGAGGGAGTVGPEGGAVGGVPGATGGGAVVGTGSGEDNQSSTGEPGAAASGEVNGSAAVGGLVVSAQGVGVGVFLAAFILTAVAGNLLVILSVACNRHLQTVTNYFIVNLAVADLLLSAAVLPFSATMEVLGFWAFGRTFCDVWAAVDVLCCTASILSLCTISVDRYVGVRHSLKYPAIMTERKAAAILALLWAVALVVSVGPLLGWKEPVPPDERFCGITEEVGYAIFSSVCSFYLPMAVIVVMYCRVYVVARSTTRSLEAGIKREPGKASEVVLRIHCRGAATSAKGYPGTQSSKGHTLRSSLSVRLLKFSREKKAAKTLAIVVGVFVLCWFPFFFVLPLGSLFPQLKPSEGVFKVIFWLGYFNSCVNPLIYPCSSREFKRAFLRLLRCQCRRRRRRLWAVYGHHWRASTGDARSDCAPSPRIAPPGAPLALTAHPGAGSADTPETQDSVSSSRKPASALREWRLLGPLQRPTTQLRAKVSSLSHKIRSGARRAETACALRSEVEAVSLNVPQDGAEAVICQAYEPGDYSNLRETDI
T3 sequence (P43140 whole entry): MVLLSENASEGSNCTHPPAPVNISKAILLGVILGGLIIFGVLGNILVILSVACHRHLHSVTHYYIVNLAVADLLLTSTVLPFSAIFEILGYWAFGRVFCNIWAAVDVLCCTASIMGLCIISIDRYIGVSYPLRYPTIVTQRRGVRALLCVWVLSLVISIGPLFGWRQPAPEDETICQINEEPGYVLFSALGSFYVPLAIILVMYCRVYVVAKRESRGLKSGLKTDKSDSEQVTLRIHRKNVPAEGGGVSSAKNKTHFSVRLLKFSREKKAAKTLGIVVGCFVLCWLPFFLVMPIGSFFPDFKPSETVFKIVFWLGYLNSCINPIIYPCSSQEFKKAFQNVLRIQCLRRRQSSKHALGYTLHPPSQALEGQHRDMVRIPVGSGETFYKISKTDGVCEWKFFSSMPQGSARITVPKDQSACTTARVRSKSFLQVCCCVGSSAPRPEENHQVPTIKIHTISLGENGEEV

[6] = Binding affinity (Ki) ratio of D2 receptor of rat striatum and 5-HT1A receptor of rat hippocampus.; type: tissue-based

Sequence of D(2) dopamine receptor (P61169 whole entry): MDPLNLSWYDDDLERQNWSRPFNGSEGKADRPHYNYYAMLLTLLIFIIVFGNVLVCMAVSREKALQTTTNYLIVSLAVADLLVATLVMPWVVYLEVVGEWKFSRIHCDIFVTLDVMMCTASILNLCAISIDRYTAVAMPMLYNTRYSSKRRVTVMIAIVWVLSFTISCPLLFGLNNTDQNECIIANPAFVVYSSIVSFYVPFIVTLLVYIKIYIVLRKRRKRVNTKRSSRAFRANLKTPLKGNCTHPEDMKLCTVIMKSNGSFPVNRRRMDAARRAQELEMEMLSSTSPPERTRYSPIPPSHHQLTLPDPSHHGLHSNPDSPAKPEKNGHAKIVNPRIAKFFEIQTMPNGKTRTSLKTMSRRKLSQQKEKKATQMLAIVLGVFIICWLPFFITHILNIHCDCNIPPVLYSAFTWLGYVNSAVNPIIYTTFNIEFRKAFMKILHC

Structure (SMILES): O=C1CCOc2c(OCCNCCCCc3ccc(Cl)cc3)cc(F)cc21
Ki [1]: 32.3 nM | FSC recovery [2]: 30% | Ki [3]: 19 nM | Selectivity [4]: 5.2 | Ki [5]: 98.9 nM | Ratio [6]: 1.7

Structure (SMILES): CN(C)c1ccc(CCCCNCCOc2cc(F)cc3c2OCCC3=O)cc1
Ki [1]: 34.6 nM | FSC recovery [2]: 37% | Ki [3]: 28.3 nM | Selectivity [4]: 20 | Ki [5]: 574 nM | Ratio [6]: 1.2

Structure (SMILES): CCCOc1ccc(CCCCNCCOc2cc(F)cc3c2OCCC3=O)cc1
FSC recovery [2]: 33% | Ki [3]: 48.8 nM | Selectivity [4]: 18 | Ki [5]: 856 nM

Structure (SMILES): COc1ccc(CCCCNCCOc2cc(F)cc3c2OCCC3=O)c(C)c1C
FSC recovery [2]: 17% | Ki [3]: 77 nM | Selectivity [4]: 2 | Ki [5]: 152 nM

Structure (SMILES): O=C1CCOc2c(OCCNCCCCc3ccc(O)cc3)cc(F)cc21
Ki [1]: 23.3 nM | FSC recovery [2]: 26% | Ki [3]: 55.8 nM | Selectivity [4]: 2.2 | Ki [5]: 120 nM | Ratio [6]: 0.42

Structure (SMILES): CCCN(CCCCc1ccc2c(c1)OCO2)CCOc1cc(F)cc2c1OCCC2=O
Ki [1]: 1540 nM | FSC recovery [2]: 6% | Ki [3]: 69 nM | Selectivity [4]: 11 | Ki [5]: 734 nM | Ratio [6]: 22

Structure (SMILES): COc1ccc(CCCCNCCOc2cc(F)cc3c2OCCC3O)cc1 (single isomer, unassigned; (+)) [listing 1 of 2 here]
FSC recovery [2]: 109% | Selectivity [4]: 35 | Ratio [6]: 0.23

Structure (SMILES): O=C1CCOc2c(OCCNCCCCc3ccccc3)cc(F)cc21
Ki [1]: 43.9 nM | FSC recovery [2]: 16% | Ki [3]: 41.8 nM | Selectivity [4]: 2.2 | Ki [5]: 91.5 nM | Ratio [6]: 1.1

Structure (SMILES): COc1cccc(CCCCNCCOc2cc(F)cc3c2OCCC3=O)c1
Ki [1]: 111 nM | FSC recovery [2]: 3% | Ki [3]: 43.4 nM | Selectivity [4]: 5.7 | Ki [5]: 249 nM | Ratio [6]: 2.6

Structure (SMILES): COc1ccccc1CCCCNCCOc1cc(F)cc2c1OCCC2=O
Ki [1]: 23.7 nM | FSC recovery [2]: 44% | Ki [3]: 24 nM | Selectivity [4]: 3.2 | Ki [5]: 75.6 nM | Ratio [6]: 0.99

Structure (SMILES): COc1ccc(CCCCNCCOc2cc(F)cc3c2OCCC3O)cc1 (stereo in doubt; 34)
FSC recovery [2]: 108% | Selectivity [4]: 15 | Ratio [6]: 1

Structure (SMILES): COc1ccc(CCCCN(C)CCOc2cc(F)cc3c2OCCC3=O)cc1
FSC recovery [2]: 10% | Ki [3]: 52.7 nM | Selectivity [4]: 26 | Ki [5]: 1350 nM

Structure (SMILES): CSc1ccc(CCCCNCCOc2cc(F)cc3c2OCCC3=O)cc1
Ki [1]: 38.8 nM | FSC recovery [2]: 49% | Ki [3]: 18.4 nM | Selectivity [4]: 17 | Ki [5]: 315 nM | Ratio [6]: 2.1

Structure (SMILES): COc1ccc(CCCCNCCOc2cc(F)cc3c2OCCC3=O)c2ccccc12
Ki [1]: 153 nM | FSC recovery [2]: -15% | Ki [3]: 680 nM | Selectivity [4]: 0.29 | Ki [5]: 198 nM | Ratio [6]: 0.23

Structure (SMILES): COc1ccc(CCCCNCCOc2cc(F)cc3c2OCCC3O)cc1 (stereo in doubt; (-)-34) [listing 2 of 2 here]
FSC recovery [2]: 111% | Selectivity [4]: 19 | Ratio [6]: 13

Structure (SMILES): O=C1CCOc2c(OCCNCCCCc3ccc([N+](=O)[O-])cc3)cc(F)cc21
FSC recovery [2]: 3% | Ki [3]: 19.3 nM | Selectivity [4]: 13 | Ki [5]: 258 nM

The remaining molecules from weak to strong by Ki [3], led by results:

Ki [1]: 9.07 nM | FSC recovery [2]: 111% | Ki [3]: 18.3 nM | Selectivity [4]: 9.6 | Ki [5]: 175 nM | Ratio [6]: 0.5
Structure (SMILES): COc1ccc(CCCCNCCOc2cc(F)cc3c2OCCC3OC)cc1 (stereo unspecified)

Ki [1]: 55.1 nM | FSC recovery [2]: 52% | Ki [3]: 18 nM | Selectivity [4]: 37 | Ki [5]: 663 nM | Ratio [6]: 3.1
Structure (SMILES): CCOc1ccc(CCCCNCCOc2cc(F)cc3c2OCCC3=O)cc1

Ki [1]: 70.4 nM | FSC recovery [2]: 17% | Ki [3]: 11 nM | Selectivity [4]: 32 | Ki [5]: 355 nM | Ratio [6]: 6.4
Structure (SMILES): N#Cc1ccc(CCCCNCCOc2cc(F)cc3c2OCCC3=O)cc1

Ki [1]: 4.98 nM | FSC recovery [2]: 40% | Ki [3]: 9.53 nM | Selectivity [4]: 2.1 | Ki [5]: 19.9 nM | Ratio [6]: 0.52
Structure (SMILES): COc1ccc(CCCNCCOc2cc(F)cc3c2OC(C)CC3)cc1 (stereo unspecified)

Ki [1]: 2.31 nM | FSC recovery [2]: 76% | Ki [3]: 8.99 nM | Selectivity [4]: 3.4 | Ki [5]: 30.8 nM | Ratio [6]: 0.26
Structure (SMILES): COc1ccc(CCCCCCNCCOc2cc(F)cc3c2OC(C)CC3)cc1 (stereo unspecified)

Ki [1]: 3.02 nM | FSC recovery [2]: 59% | Ki [3]: 7.33 nM | Selectivity [4]: 2.6 | Ki [5]: 19.1 nM | Ratio [6]: 0.41
Structure (SMILES): COc1ccc(CCCCCNCCOc2cc(F)cc3c2OC(C)CC3)cc1 (stereo unspecified)

Ki [1]: 38 nM | FSC recovery [2]: 9% | Ki [3]: 4.04 nM | Selectivity [4]: 78 | Ki [5]: 317 nM | Ratio [6]: 9.4
Structure (SMILES): COc1ccc(CCNCCOc2cc(F)cc3c2OCCC3=O)cc1

Ki [1]: 2.99 nM | FSC recovery [2]: 68% | Ki [3]: 2.34 nM | Selectivity [4]: 5.8 | Ki [5]: 13.5 nM | Ratio [6]: 1.3
Structure (SMILES): COc1ccc(CCNCCOc2cc(F)cc3c2OCCC3O)cc1 (stereo unspecified)

Ki [1]: 0.482 nM | Ki [3]: 2.1 nM | Ki [5]: 73.3 nM
Structure (SMILES): COc1ccc(CCCCNCCOc2cc(F)cc3c2OCCC3O)cc1 (single isomer, unassigned; (+)) [listing 2 of 2 here]

Ki [1]: 0.149 nM | FSC recovery [2]: 44% | Ki [3]: 0.435 nM | Selectivity [4]: 8.2 | Ki [5]: 3.57 nM | Ratio [6]: 0.34
Structure (SMILES): COc1ccc(CCCCNCCOc2cc(F)cc3c2OC(C)(C)CC3)cc1

Ki [1]: 4.11 nM | Ki [3]: 0.31 nM | Ki [5]: 5.86 nM
Structure (SMILES): COc1ccc(CCCCNCCOc2cc(F)cc3c2OCCC3O)cc1 (stereo in doubt; (-)-34) [listing 1 of 2 here]

Ki [1]: 0.312 nM | FSC recovery [2]: 53% | Ki [3]: 0.27 nM | Selectivity [4]: 15 | Ki [5]: 4.07 nM | Ratio [6]: 1.2
Structure (SMILES): COc1ccc(CCCCNCCOc2cc(F)cc3c2OC(C)CC3)cc1 (stereo unspecified)

Ki [1]: 8.13 nM | FSC recovery [2]: 12% | Ki [3]: 0.188 nM | Selectivity [4]: 15 | Ki [5]: 2.73 nM | Ratio [6]: 43
Structure (SMILES): COc1ccc(CCNCCOc2cc(F)cc3c2OC(C)CC3)cc1 (stereo unspecified)
